Reference: patent US20250206754A1, “PAN-CHEMOKINE ANTAGONISTS FOR USE IN TREATING CANCER AND IMMUNE DISORDERS” ("Micar Innovation" LTD., priority 2022, published 2025)

Assays:
CCR2 = CCR2 (Homo sapiens, UniProt P41597); experiment: β-arrestin selectivity assay, CCR2; format: cell-based
CCR3 = biological target: T1, CCR3 (Homo sapiens, UniProt P51677); experiment: β-arrestin selectivity assay, CCR3; format: cell-based
T1 sequence (P51677 1-355): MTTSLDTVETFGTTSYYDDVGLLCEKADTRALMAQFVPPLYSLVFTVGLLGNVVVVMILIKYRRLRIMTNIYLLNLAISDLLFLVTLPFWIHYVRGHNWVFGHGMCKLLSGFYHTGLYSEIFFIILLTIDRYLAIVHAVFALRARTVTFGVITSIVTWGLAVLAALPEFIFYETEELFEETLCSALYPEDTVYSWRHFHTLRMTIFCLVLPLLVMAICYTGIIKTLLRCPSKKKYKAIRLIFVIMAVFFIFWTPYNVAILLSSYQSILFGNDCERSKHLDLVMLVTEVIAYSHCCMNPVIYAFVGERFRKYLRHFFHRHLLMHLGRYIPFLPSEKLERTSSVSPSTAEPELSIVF

CCR5 [1] = biological target: T2, CCR5 (Homo sapiens, UniProt P51681); experiment: β-arrestin selectivity assay, CCR5; format: cell-based
CCR5 [2] = biological target: T2, CCR5; experiment: Ca^2+ mobilization assay, CCR5; format: cell-based
Description: (§1) The Kb values are also retrieved. […] Finally, to make it more clear the second messenger output for Hit1 and confirm the nature of β-arrestin bias GTPγS and ERK assays were also performed. […] Considering that the ERK is directly related to β-arrestin path and binds directly to the arrestin it was concluded that this compound is β-arrestin biased (Table 1 and FIGS. 3A and 3B). Finally, several other potential hits were identified but the activities were in a range of 25-35% at 100 μM concentration and they were discarded in this disclosure.

CCR9 = biological target: T3, CCR9 (Homo sapiens, UniProt P51686); experiment: Ca^2+ mobilization assay, CCR9; format: cell-based
T3 sequence (P51686 1-369): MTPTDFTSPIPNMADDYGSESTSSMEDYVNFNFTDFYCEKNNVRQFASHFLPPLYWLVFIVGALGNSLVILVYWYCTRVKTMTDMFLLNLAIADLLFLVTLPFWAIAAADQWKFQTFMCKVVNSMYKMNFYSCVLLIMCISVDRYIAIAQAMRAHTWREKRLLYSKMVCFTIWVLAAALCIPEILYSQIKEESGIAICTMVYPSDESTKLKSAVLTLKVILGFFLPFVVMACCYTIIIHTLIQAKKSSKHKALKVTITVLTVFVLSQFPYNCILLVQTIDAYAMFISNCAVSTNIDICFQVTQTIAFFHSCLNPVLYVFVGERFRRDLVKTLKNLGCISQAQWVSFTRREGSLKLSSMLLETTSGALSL
Description: as §1

CCR7 = biological target: T4, CCR7 (Homo sapiens, UniProt P32248); experiment: ERK assay, CCR7; format: cell-based
T4 construct: expressed in transfected cells
T4 sequence (P32248 25-378): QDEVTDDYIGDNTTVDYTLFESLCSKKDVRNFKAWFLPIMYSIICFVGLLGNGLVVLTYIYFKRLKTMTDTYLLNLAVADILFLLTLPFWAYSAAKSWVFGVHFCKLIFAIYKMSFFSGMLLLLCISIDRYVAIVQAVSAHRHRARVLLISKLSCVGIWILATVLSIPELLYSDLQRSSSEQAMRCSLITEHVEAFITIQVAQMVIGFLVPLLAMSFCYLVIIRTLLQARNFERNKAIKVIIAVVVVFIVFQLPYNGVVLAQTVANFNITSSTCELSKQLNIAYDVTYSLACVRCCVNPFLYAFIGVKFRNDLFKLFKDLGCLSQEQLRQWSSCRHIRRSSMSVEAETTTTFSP
Description: as §1
Current diversity data provide also several additional experimental evidences which are against colloid aggregation activity dependence: • Almost identical steep dose-response curves have been observed for the natural CCL19 and CCL21 agonists. Thus, it seems that this is not unique to Hit 1 case. • Hill coefficient of 1.5 in the ERK experiments and no steep slope (FIG. 3A). Moreover, the ERK dose-response curve looks like a typical single antagonist ligand. • At the same conditions as in the ERK assay the compound was in particular not active in the GTPγS assay up to 100 μM (FIG. 3B). […]

[3] = Maximal tolerated dose (MTD) study in BALB/c mice; format: in vivo; conditions: daily (QD) oral doses of 30 mg/kg and 150 mg/kg
Description: Design of the in vivo study: A total of 44 female BALB/c mice (12 mice for maximal tolerance dose (MTD) study; 32 mice for efficacy study) were used in the 4T-1-Luc study. The animals were specific pathogen free and approximately 4-5 weeks old at the initiation of the study.
MTD studies: Initially, 10 BALB/c mice were used for the maximal tolerated dose (MTD) response study determination. The mice were randomized based on body weight and were treated with Hit 1 compound with daily (QD) oral doses of 30 mg/kg and 150 mg/kg. Body weight was measured daily.

β-lactamase = β-lactamase enzymatic activity counterscreen (colloid aggregation); format: biochemical; conditions: 50 μM
Description: To examine the colloid aggregation possibility a β-lactamase enzymatic activity counterscreen assay was performed, which is the commonly adopted tool for detection of such properties of the compounds.

MB231cell line = experiment: Migration assay by MB231 cell line with CCL19/CCL21; conditions: 100 nM of CCL19/CCL21
Description: (§2) For this purpose a model for the inhibition of CCL2 release from IL-4, IL-13, IL-22 and IFNγ-stimulated primary human keratinocytes (Eczematous inflammation) was used and also an assay for the inhibition of IL-8 release from IL-17A and TNFα (Psoriatic inflammation). […] Finally, migration assay by MB231cell line was performed.

CCL2 release = conditions: Homo sapiens, Keratinocyte, read-out: EC50, CCL2 release
Description: as §2

T2 sequence (P51681 whole entry): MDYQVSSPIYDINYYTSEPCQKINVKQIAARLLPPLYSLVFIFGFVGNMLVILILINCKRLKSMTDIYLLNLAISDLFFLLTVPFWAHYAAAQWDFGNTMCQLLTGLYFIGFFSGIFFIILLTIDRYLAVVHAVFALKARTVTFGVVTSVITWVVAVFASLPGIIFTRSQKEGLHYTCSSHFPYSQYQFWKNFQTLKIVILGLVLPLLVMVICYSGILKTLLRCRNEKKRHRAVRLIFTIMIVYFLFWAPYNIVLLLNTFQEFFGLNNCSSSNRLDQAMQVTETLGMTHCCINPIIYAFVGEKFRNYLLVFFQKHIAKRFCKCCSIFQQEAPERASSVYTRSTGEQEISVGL
Sequence of CCR2 (P41597 whole entry): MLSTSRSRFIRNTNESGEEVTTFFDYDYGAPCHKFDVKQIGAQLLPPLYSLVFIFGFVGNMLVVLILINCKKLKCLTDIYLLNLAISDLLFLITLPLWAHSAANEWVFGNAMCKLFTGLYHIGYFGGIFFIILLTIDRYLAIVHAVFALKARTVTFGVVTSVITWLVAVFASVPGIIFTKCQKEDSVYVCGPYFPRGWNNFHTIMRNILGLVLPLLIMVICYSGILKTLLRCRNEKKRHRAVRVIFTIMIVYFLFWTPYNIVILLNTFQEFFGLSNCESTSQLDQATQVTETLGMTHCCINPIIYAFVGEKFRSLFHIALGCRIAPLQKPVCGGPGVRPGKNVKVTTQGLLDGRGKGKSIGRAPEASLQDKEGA

`NC(=O)c1ccccc1Oc1ncnc2sc(-c3ccccc3)cc12` [Hit 1, 2-({6-phenylthieno[2,3-d]pyrimidin-4-yl}oxy)benzamide] gave a Hill coefficient (CCR2) of 3.1, an IC50 (CCR2) of 2.6 µM and a Hill coefficient (CCR3) of 2.6. For the same molecule, the IC50 (CCR3) was 4.4 µM, the Hill coefficient (CCR5 [1]) was 1.9 and the IC50 (CCR5 [1]) was 1.9 µM. It also gave a Kb (CCR5 [2]) of 10.5 µM, a Hill-Slope (CCR5 [2]; Ca^2+ assay) of 1.2 and an IC50 (CCR5 [2]; Ca^2+ mobilization assay) of 55 µM. It also gave a Kb (CCR9) of 5.2 µM, a Hill-Slope (CCR9; Ca^2+ assay) of 0.8 and an IC50 (CCR9; Ca^2+ mobilization assay) of 58 µM. For the same molecule, the IC50 (CCR7; ERK assay) was 18.1 µM, the Hill coefficient (CCR7; ERK experiments) was 1.5 and the “behavior and side effects” value [3] was “did not show abnormal behavior”. For the same molecule, the body weight loss [3] was “A significant (>20%) body lost was not observed”, the “activity on β-lactamase” value (β-lactamase) was −18% and the “reduction of CCL19/CCL21-induced migration” value (MB231cell line) was 10 folds. The migratory cells (MB231cell line; control 100%, CCL19/CCL21 200%) was 20% and the EC50 (CCL2 release) was 0.411 µM.
